These results are taken from patent EP4653444A1, “FUSED TRICYCLIC COMPOUND AS KINASE INHIBITOR” (Hangzhou Innogate Pharma Co., Ltd., priority 2023, dated 2024).

Data set [1] is described as follows: Pharmacokinetic study in rats. The following applies: rat, plasma, po, 3 mg/kg.
Procedure: Pharmacokinetic parameters were calculated by statistical moment method using WinNonLin 8.0 software, mainly including Tmax, T1/2, Cmax and AUC0-24h.
Animals: Three male SD rats weighing 200-220 g were used. After purchase, they were housed in the laboratory animal center for 2 days before experiment. […] Blood samples were collected at scheduled time points after oral gavage.
Vehicle: 0.4% ethanol + 0.4% Tween 80 + 99.2% (0.5% methylcellulose M450). Preparation of oral gavage solution: The compound was accurately weighed and dissolved in vehicle by ultrasonication for 5 min at room temperature to prepare 0.3 mg/mL drug solution.
Single compound administration was also used to study pharmacokinetics in rats.
Blood sample collection: After oral gavage, blood samples were collected from orbital sinus at 0.25, 0.5, 1, 2, 4, 8, 10 and 24 h. 50 µL plasma was mixed with 200 µL acetonitrile (containing 2 ng/mL verapamil as internal standard). The mixture was vortexed for 3 min, then centrifuged at 20000 rcf for 10 min at 4 °C. The supernatant was analyzed by LC-MS/MS.
Standard curves were established by accurately weighing and preparing compounds at different concentrations for mass spectrometric quantification. Compound concentrations in plasma samples were determined based on standard curves to obtain concentration-time profiles. All measurement data were collected and processed by relevant software. Pharmacokinetic parameters (including Tmax, T1/2, Cmax and AUC0-24h) were calculated by statistical moment method.
The target in another data set is ALK kinase (Homo sapiens, UniProt Q9UM73). Put plainly: ALK kinase activity inhibition assay (HTRF). The class given is biochemical. On the procedure: Measure compound inhibitory activity against ALK kinase using HTRF Assay.1× kinase reaction buffer was prepared. The kinase reaction conditions were as follows: kinase concentration at 0.04 ng/µL; ATP working concentration in substrate mixture solution at 2 µM; final substrate concentration at 1 µM. Compounds were serially diluted in DMSO and shaken on an orbital shaker for 20 minutes. 2× kinase solution was prepared using 1× kinase reaction buffer. 1 µL of compound solution was transferred to a 384-well plate. 2 µL of kinase solution was added to each well of the reaction plate. The plate was sealed with adhesive film, centrifuged at 1000 rpm for 60 seconds, and incubated at 25°C for 10 minutes. 2.5× ATP/substrate mixture was prepared using 1× kinase reaction buffer. 2 µL of 2.5× ATP/substrate mixture was added to the reaction plate. The plate was sealed with adhesive film, centrifuged at 1000 rpm for 60 seconds, and incubated at 25°C for 50 minutes. 4× Sa-XL 665 solution was prepared using HTRF detection buffer. 5 µL of Sa-XL 665 solution and 5 µL of TK-antibody-Cryptate solution were added to each well. The plate was centrifuged at 1000 rpm for 60 seconds and incubated at 25°C for 60 minutes. Fluorescence signals were measured at 615 nm (Cryptate) and 665 nm (XL665) using a BMG microplate reader. The ratio for each well was calculated as: Ratio_665/615nm. The inhibition percentage was calculated as follows: % inhibition = 100% - [(Compound Ratio - Positive Control Ratio)/(Negative Control Ratio - Positive Control Ratio)] × 100%. The IC50 values (half-maximal inhibitory concentration) of compounds were determined by fitting the data to the following nonlinear regression equation using GraphPad Prism 7.0 software: Y = Bottom + (Top - Bottom)/(1 + 10^(([…] - X) × Hill Slope)) where: X = log(compound concentration), Y = % inhibition.

The target of a further data set is CDK7/CycH/MAT1 kinase (Homo sapiens, UniProt P50613). As to the kind of experiment: CDK7 kinase activity inhibition assay (ADP-Glo). Format: biochemical. The method, then:
Measure compound inhibitory activity against CDK7/CycH/MAT1 kinase using ADP-Glo assay. 1× kinase reaction buffer was prepared (working concentrations: HEPES 50 mM, MgCl2 10 mM, Brij35 0.01%, DTT 2 mM). The kinase reaction conditions were as follows: Kinase concentration: 3.5 ng/µL; Substrate mixture working concentrations: ATP 30 µM, CDK substrate 0.1 mg/ mL. Compounds were serially diluted in DMSO and shaken on an orbital shaker for 20 minutes. 2× kinase solution was prepared using 1× kinase buffer. 1 µL of compound solution was transferred to a 384-well plate. 2 µL of kinase solution was added to each well of the reaction plate. The plate was sealed with adhesive film, centrifuged at 1000 rpm for 60 seconds, and incubated at 25°C for 10 minutes. 4× ATP&substrate mixture was prepared using 1× kinase buffer. 1 µL of 4× ATP&substrate mixture was added to the reaction plate. The plate was sealed with adhesive film, centrifuged at 1000 rpm for 60 seconds, and incubated at 25°C for 60 minutes. 4 µL of ADP-Glo reagent was transferred to the 384-well reaction plate, centrifuged at 1000 rpm for 1 minute, and incubated at 25°C for 40 minutes. 8 µL of Detection solution was transferred to the 384-well reaction plate, centrifuged at 1000 rpm for 1 minute, and incubated at 25°C for 40 minutes. Relative luminescence units (RLU) were measured using a BMG microplate reader, with signal intensity representing kinase activity level. The inhibition percentage was calculated as follows: % inhibition = 100% - [(Compound RLU - Positive Control RLU)/(Negative Control RLU - Positive Control RLU)] × 100%. The IC50 values (half-maximal inhibitory concentration) of compounds were determined by fitting the data to the following nonlinear regression equation using GraphPad Prism 7.0 software: Y = Bottom + (Top - Bottom)/(1 + 10^((LogIC50 - X) × Hill Slope)), where: X = log(compound concentration), Y = % inhibition.

A further data set concerns the target HPK1 kinase (Homo sapiens, UniProt Q92918). As to the kind of experiment: HPK1 kinase activity inhibition assay (Mobility shift assay). The class given is biochemical. The method, then: Measure compound inhibitory activity against HPK1 kinase using Mobility shift assay. Compounds were dissolved in 100% DMSO to prepare 10 mM stock solutions. 1× Kinase buffer was prepared. Test compounds were serially diluted in 5-fold gradients, and 250 nL of 100× final concentration compounds were transferred to destination plate 3573 using an Echo 550 liquid handler. A 2.5× final concentration kinase solution was prepared in 1× Kinase Buffer. 10 µL of the 2.5× kinase solution was added to both compound wells and positive control wells, while 10 µL of 1× Kinase buffer was added to negative control wells. The plate was centrifuged at 1000 rpm for 30 seconds, mixed by orbital shaking, and incubated at room temperature for 10 minutes. A 5/3× final concentration mixture of ATP and Kinase substrate 25 was prepared in 1× Kinase buffer. 15 µL of the 5/3× ATP/substrate mixture was added to initiate the reaction. The 384-well plate was centrifuged at 1000 rpm for 30 seconds, mixed by shaking, and incubated at room temperature for 120 minutes. The kinase reaction was terminated by adding 30 µL stop solution, followed by centrifugation at 1000 rpm for 30 seconds and mixing. Conversion rates were measured using a Caliper EZ Reader. The inhibition percentage was calculated as: %Inhibition = (Conversion%_max - Conversion%_sample)/(Conversion%_max - Conversion%_min) × 100. Where Conversion%_sample: Conversion rate reading of test samples; Conversion%_min: Mean value of negative control wells (representing conversion rate without enzyme activity); Conversion%_max: Mean value of positive control wells (representing conversion rate without compound inhibition). Dose-response curves were plotted with log(concentration) as the X-axis and percentage inhibition as the Y-axis. Curve fitting was performed using GraphPad Prism 5 software with the "log(inhibitor) vs. response - Variable slope" model to derive IC50 values for each compound's enzyme inhibitory activity. The fitting formula was: Y = Bottom + (Top - Bottom)/(1 + 10^((LogIC50 - X) × HillSlope)).

Setting [2] is: Table 4, ATP 2 µM, read-out: ALK (IC50).
Where [3] appears, read: Table 4, ATP 30 µM, read-out: CDK7 (IC50).

Read-outs that look alike come from different tables or passages of the source. Bounds are passed on as bounds.

Chain of HPK1 kinase (Q92918 whole entry): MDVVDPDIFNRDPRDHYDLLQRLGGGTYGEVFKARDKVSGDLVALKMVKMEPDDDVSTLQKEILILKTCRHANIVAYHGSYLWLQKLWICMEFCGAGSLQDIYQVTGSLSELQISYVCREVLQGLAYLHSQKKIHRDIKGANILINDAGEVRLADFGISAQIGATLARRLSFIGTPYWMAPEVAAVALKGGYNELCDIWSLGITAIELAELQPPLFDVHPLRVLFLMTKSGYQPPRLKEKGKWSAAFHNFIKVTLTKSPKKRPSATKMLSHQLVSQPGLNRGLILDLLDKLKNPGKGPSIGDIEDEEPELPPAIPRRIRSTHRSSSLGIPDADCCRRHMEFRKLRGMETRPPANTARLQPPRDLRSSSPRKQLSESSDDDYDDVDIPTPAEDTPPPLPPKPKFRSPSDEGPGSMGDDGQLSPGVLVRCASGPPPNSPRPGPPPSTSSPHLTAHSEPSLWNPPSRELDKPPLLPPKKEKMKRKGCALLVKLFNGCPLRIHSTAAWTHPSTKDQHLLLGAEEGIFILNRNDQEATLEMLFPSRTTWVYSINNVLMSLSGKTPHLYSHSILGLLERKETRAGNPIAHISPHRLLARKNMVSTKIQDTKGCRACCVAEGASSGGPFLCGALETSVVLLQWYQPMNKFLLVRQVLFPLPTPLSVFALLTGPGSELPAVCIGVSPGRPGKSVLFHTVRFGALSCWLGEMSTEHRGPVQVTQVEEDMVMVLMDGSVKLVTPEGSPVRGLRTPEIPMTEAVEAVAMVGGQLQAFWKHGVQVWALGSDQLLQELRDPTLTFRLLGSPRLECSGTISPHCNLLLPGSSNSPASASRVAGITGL
Chain of ALK kinase (Q9UM73 19-1620): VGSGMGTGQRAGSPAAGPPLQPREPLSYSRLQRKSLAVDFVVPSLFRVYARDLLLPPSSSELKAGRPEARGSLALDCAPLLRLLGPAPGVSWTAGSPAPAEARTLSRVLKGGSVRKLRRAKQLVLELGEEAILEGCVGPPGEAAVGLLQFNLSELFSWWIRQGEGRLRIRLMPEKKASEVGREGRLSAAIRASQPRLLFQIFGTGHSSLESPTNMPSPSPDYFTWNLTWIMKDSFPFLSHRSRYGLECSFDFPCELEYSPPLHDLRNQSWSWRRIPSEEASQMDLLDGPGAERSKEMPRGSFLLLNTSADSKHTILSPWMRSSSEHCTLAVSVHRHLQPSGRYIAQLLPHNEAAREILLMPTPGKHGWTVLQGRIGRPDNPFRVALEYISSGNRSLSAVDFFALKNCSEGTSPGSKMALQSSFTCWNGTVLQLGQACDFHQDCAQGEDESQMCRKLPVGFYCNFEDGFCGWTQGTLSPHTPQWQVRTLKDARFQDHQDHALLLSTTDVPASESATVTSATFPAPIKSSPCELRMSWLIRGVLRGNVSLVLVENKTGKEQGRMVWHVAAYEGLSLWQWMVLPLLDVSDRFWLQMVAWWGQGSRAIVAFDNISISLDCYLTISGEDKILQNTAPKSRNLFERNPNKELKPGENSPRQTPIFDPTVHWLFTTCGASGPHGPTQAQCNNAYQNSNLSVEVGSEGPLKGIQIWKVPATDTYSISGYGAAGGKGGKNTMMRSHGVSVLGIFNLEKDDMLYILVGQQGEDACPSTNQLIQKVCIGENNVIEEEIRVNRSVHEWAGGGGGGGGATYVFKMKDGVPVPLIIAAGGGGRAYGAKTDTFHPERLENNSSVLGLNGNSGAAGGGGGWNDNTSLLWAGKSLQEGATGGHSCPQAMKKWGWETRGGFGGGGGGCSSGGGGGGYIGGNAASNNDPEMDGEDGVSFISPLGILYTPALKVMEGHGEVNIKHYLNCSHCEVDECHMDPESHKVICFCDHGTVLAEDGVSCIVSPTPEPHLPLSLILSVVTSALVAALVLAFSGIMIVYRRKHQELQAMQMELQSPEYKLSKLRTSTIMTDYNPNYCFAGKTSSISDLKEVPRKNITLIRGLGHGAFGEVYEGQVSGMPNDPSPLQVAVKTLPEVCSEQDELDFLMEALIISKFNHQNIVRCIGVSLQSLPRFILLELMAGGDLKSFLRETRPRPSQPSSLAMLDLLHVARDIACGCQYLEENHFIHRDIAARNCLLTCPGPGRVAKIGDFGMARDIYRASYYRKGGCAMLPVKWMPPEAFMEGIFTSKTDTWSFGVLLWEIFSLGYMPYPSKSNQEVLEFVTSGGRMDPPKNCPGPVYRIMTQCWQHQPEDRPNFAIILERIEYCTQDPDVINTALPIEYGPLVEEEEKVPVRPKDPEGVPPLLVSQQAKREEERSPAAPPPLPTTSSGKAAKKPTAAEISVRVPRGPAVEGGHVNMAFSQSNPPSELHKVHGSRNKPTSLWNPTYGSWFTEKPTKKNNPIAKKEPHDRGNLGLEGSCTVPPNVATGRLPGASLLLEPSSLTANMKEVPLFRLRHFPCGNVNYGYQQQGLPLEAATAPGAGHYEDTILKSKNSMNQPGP
Chain of CDK7/CycH/MAT1 kinase (P50613 whole entry, species assumed): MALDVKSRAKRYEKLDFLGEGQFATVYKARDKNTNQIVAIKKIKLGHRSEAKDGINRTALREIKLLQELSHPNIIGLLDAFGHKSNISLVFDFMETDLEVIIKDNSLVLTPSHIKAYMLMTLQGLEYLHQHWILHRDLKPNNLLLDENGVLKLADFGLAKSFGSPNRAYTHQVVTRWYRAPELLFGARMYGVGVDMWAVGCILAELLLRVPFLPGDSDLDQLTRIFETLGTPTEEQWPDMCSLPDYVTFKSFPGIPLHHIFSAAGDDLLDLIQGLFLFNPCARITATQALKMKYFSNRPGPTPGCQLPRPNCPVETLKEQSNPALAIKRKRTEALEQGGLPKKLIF
Chain of CDK7/CycH/MAT1 kinase (P51946 whole entry partner, species assumed): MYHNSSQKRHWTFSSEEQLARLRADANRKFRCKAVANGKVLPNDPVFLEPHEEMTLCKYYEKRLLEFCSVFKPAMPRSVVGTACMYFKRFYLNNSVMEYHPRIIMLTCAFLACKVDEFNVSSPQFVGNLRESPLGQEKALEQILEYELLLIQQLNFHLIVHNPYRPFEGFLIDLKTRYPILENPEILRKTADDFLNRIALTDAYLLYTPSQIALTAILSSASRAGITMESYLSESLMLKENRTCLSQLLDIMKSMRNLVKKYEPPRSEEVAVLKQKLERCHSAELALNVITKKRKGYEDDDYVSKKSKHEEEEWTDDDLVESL
Chain of CDK7/CycH/MAT1 kinase (P51948 whole entry partner, species assumed): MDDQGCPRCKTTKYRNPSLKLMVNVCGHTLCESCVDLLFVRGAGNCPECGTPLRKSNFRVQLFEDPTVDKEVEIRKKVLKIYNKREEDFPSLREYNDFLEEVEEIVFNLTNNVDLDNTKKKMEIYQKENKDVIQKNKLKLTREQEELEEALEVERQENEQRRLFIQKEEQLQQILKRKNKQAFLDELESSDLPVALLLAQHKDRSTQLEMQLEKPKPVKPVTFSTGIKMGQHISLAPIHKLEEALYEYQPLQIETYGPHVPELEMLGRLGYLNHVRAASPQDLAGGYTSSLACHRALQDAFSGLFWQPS

Regarding `COc1cc2c(cc1Nc1ncc(Cl)c(Nc3ccccc3S(=O)(=O)C(C)C)n1)OC[C@@H]1CN(C3CCOCC3)CCN21` [Compound C1S], in data set [1], the AUC(0-t) at 24 h came out at 136 ng·h/mL, the Cmax is 61.8 ng/mL, the Tmax turned out to be 0.83 h and the half-life is 1.78 h.

`COc1cc2c(cc1Nc1ncc(Cl)c(Nc3ccccc3S(=O)(=O)C(C)C)n1)OC[C@@H]1CN(C3CCN(C)CC3)CCN21` [Compound C2S] gave an IC50 on ALK kinase of under 0.05 nM. Further, in data set [1], the AUC(0-t) at 24 h worked out at 1970 ng·h/mL, the concentration peaked (Cmax) at 135 ng/mL, the time to peak (Tmax) came out at 10 h and the half-life is 9.2 h.

On to `CNC(=O)c1ccccc1Nc1cc(Nc2cc3c(cc2OC)N2CCN(C4CCN(C)CC4)C[C@@H]2CO3)ncc1C(F)(F)F` [Compound D2R], for which the half-inhibitory concentration (IC50) at ALK kinase is under 10 nM; against CDK7/CycH/MAT1 kinase, under 15 nM; on HPK1 kinase, under 30 nM.

With `CNC(=O)c1ccccc1Nc1cc(Nc2cc3c(cc2OC)N2CCN(C4CCN(C)CC4)C[C@H]2CO3)ncc1C(F)(F)F` [Compound D2S], the IC50 on ALK kinase (setting [2]) is under 15 nM. In data set [1], the AUC(0-t) at 24 h was determined as 1470 ng·h/mL, the Cmax was 134 ng/mL, the time to peak (Tmax) is 3.33 h and the half-life was 5.97 h. Also, the IC50 at CDK7/CycH/MAT1 kinase (setting [3]) is under 15 nM. Further, the IC50 at HPK1 kinase (Table 4, read-out: HPK1 (IC50)) was under 30 nM.

On to `CNC(=O)c1ccccc1Nc1cc(Nc2cc3c(cc2OC)N2CCN(C4CN(C)C4)C[C@H]2CO3)ncc1C(F)(F)F` [Compound D4S], for which the IC50 on ALK kinase (setting [2]) is under 15 nM. In addition, in data set [1], the AUC(0-t) at 24 h amounted to 1660 ng·h/mL, the Cmax is 241 ng/mL, the Tmax was 5.33 h and the half-life is 3.03 h. The IC50 at CDK7/CycH/MAT1 kinase (setting [3]) was under 10 nM. Besides, the IC50 on HPK1 kinase (Table 4, read-out: HPK1 (IC50)) was under 20 nM.
